Read-outs that look alike come from different tables or passages of the source.
Legend:
δ-opioid receptors = molecular target: T1, δ-opioid receptors (Homo sapiens, UniProt P41143); experiment: Eurofins Cerep radioligand binding screen; conditions: 10 μM
T1 construct: Eurofins Cerep; host or cells: cell membrane homogenates
Protocol: (§1) The compounds were screened at each target once, in duplicate, at 100 nM and 10 μM. […] The assay was valid if the reliability criteria, K i or IC50 values within 1/2 Log of historical values, were met. Radioligand binding assay methods were as previously described with only minor modifications , (see table in Supplementary Figure S4 for radioligands, protein sources, and assay test conditions). Briefly, cell membrane homogenates were incubated with either an antagonist or agonist radioligand in the absence or presence of the test compound in a buffer. A specific unlabeled agonist or antagonist at the target determined nonspecific binding. Following incubation, the samples were filtered rapidly under vacuum through glass fiber filters presoaked in a buffer and rinsed several times with an ice-cold buffer using a 48-sample or 96-sample cell harvester. Using a scintillation cocktail, the filters were counted for radioactivity in a scintillation counter. Compound binding was calculated as a percent inhibition of the binding of the radioactively labeled ligand specific for each target. Preparatory methods for enzyme inhibition assays were similar to radioligand binding assays. These assays involved using a known substrate, stimulus, and/or tracer, and detection methods included LANCE, fluorimetry, photometry, luminescence, or scintillation counting (see table in Supplementary Figure S4). Results of the screening assays showing an inhibition or stimulation higher than 50% were designated “hits” and considered to represent significant effects of the test compounds.

α2BR = molecular target: T2, α2BR (Homo sapiens, UniProt P18089); experiment: Eurofins Cerep radioligand binding screen; conditions: 10 μM; also previously reported
T2 construct: Eurofins Cerep; host or cells: cell membrane homogenates
Protocol: as §1

α1DR = molecular target: T3, α1DR (Homo sapiens, UniProt P25100); experiment: Eurofins Cerep radioligand binding screen; conditions: 10 μM
T3 construct: Eurofins Cerep; host or cells: cell membrane homogenates
Protocol: as §1

μ-opioid receptors = molecular target: T4, μ-opioid receptors (Homo sapiens, UniProt P35372); experiment: Eurofins Cerep radioligand binding screen; conditions: 10 μM
T4 construct: Eurofins Cerep; host or cells: cell membrane homogenates
Protocol: as §1

α1BR = molecular target: T5, α1BR (Homo sapiens, UniProt P35368); experiment: Eurofins Cerep radioligand binding screen; conditions: 10 μM
T5 construct: Eurofins Cerep; host or cells: cell membrane homogenates
Protocol: as §1

κ-opioid receptors = molecular target: T6, κ-opioid receptors (Homo sapiens, UniProt P41145); experiment: Eurofins Cerep radioligand binding screen; conditions: 10 μM
T6 construct: Eurofins Cerep; host or cells: cell membrane homogenates
Protocol: as §1

α1AR [1] = molecular target: T7, α1AR (Homo sapiens, UniProt P35348); experiment: Eurofins Cerep radioligand binding screen; design: Eurofins Cerep; host or cells: cell membrane homogenates; conditions: 10 μM
T7 sequence (P35348 1-466): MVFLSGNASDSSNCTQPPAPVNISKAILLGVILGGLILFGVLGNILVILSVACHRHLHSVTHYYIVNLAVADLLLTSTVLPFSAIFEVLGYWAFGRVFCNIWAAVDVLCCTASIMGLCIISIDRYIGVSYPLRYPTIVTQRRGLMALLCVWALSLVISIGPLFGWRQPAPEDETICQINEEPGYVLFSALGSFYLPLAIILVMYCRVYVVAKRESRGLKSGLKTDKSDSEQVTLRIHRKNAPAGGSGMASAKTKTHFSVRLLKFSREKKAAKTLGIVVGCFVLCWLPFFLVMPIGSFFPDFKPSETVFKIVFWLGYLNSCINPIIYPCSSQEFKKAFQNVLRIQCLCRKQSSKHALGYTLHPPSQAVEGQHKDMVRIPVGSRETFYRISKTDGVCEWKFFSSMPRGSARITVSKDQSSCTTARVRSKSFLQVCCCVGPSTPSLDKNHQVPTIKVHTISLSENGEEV
Protocol: as §1

α2AR [2] = molecular target: T8, α2AR (Homo sapiens, UniProt P08913); experiment: Eurofins Cerep radioligand binding screen; design: Eurofins Cerep; host or cells: cell membrane homogenates; conditions: 10 μM; also previously reported
T8 sequence (P08913 1-465): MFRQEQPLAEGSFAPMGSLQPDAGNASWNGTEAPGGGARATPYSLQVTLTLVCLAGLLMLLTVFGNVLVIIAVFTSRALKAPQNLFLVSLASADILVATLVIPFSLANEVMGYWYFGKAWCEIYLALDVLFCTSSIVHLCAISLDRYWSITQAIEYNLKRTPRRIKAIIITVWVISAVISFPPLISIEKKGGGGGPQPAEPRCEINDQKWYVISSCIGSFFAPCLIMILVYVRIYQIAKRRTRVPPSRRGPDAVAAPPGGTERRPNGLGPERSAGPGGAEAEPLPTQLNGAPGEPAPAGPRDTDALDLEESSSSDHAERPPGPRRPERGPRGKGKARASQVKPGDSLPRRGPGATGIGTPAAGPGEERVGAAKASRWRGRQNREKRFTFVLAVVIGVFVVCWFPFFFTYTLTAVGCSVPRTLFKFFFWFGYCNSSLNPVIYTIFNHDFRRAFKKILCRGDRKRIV
Protocol: as §1

any enzyme tested = experiment: Eurofins Cerep enzyme inhibition screen, all enzymes tested; assay type: biochemical; conditions: 10 μM
Protocol: (§2) The compounds were screened at each target once, in duplicate, at 100 nM and 10 μM. […] The assay was valid if the reliability criteria, K i or IC50 values within 1/2 Log of historical values, were met. Radioligand binding assay methods were as previously described with only minor modifications , (see table in Supplementary Figure S4 for radioligands, protein sources, and assay test conditions). Briefly, cell membrane homogenates were incubated with either an antagonist or agonist radioligand in the absence or presence of the test compound in a buffer. A specific unlabeled agonist or antagonist at the target determined nonspecific binding. Following incubation, the samples were filtered rapidly under vacuum through glass fiber filters presoaked in a buffer and rinsed several times with an ice-cold buffer using a 48-sample or 96-sample cell harvester. Using a scintillation cocktail, the filters were counted for radioactivity in a scintillation counter. Compound binding was calculated as a percent inhibition of the binding of the radioactively labeled ligand specific for each target. Preparatory methods for enzyme inhibition assays were similar to radioligand binding assays. These assays involved using a known substrate, stimulus, and/or tracer, and detection methods included LANCE, fluorimetry, photometry, luminescence, or scintillation counting (see table in Supplementary Figure S4). […]

serotonin transporter = molecular target: T9, serotonin transporter (Homo sapiens, UniProt P31645); experiment: Eurofins Cerep radioligand binding screen; conditions: 10 μM
T9 construct: Eurofins Cerep; host or cells: cell membrane homogenates
Protocol: as §1

[3] = system: voltage-gated sodium channels; experiment: Eurofins Cerep radioligand binding screen; conditions: 10 μM
Protocol: as §1

COX2 = molecular target: T10, COX2 (Homo sapiens, UniProt P35354); experiment: Eurofins Cerep enzyme inhibition screen; assay type: biochemical; conditions: 10 μM
T10 construct: Eurofins Cerep
Protocol: as §2

β1 and β2 adrenoceptors = conditions: in vitro; literature; read-out: Affinity (Kd) at β1 and β2 adrenoceptors; cited from earlier work
human α2Rs = conditions: in vitro, literature, cited from earlier work
human α1Rs = conditions: in vitro, literature, cited from earlier work
α2AR [4] = molecular target: T8, α2AR; conditions: α2AR-expressing CHO-K1 cells
[5] = system: pERK in nontransfected HEK293 cells; experiment: ERK phosphorylation in nontransfected, knockout and antagonist-cotreated HEK293 cells; assay type: cell-based, human; conditions: for pERK, nontransfected HEK293: concentration not given; for pERK-stimulating effect with 100 nM atipamezole cotreatment / pERK-stimulating effect with 100 nM prazosin cotreatment: HEK293; for pERK-stimulating effect with 100 nM prazosin cotreatment: CLON and ISO 1 μM, mitragynine 1 μM
Protocol: (§3) Cells were serum-starved for 75 min and treated with ligands in 1 mL of fresh DMEM in the absence of serum as described in the figure legends. Cells were washed three times with ice-cold phosphate-buffered saline, lysed on ice in Radio-Immunoprecipitation Assay buffer, centrifuged to clarify the supernatant, normalized to protein concentration, and boiled in Laemmli sample buffer. Following sodium dodecyl sulfate–polyacrylamide gel electrophoresis, gels were transferred, blocked in 5% BSA and incubated with 1:1000 rabbit phospho-ERK1/2 (#9101, Cell Signaling Technology, Danvers, MA) and imaged with enhanced chemiluminescence (ECL). Blots were stripped and reprobed with rabbit ERK1/2 (#9102, Cell Signaling Technology) antibody and imaged with ECL to assess protein loading.

α2AR [6] = molecular target: T8, α2AR; experiment: cell-based
α1AR [7] = molecular target: T7, α1AR; experiment: cell-based
rat α2AR [8] = molecular target: T11, rat α2AR (Rattus norvegicus, UniProt P22909); conditions: agonist mode; CHO-K1 cells
T11 sequence (P22909 1-465): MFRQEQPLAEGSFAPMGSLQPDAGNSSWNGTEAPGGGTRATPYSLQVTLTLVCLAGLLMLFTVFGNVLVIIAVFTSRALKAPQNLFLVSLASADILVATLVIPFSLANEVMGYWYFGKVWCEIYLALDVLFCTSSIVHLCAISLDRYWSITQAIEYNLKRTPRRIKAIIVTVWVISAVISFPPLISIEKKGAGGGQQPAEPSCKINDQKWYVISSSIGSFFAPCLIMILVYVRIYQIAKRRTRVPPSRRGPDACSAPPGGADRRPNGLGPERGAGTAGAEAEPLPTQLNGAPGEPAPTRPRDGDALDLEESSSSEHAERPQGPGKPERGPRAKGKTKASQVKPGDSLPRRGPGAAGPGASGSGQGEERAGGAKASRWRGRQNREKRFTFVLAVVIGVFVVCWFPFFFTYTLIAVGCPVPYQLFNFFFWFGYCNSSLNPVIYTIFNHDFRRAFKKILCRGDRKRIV

α2AR [9] = molecular target: T8, α2AR; conditions: agonist mode; CHO-K1 cells
α1A and α1BR = conditions: read-out: EC50, α1A and α1BR-pERK; a recent report; cited from earlier work
rat α2AR [10] = molecular target: T11, rat α2AR; conditions: agonist mode; HEK293 cells; Figure S2
α2AR [11] = molecular target: T8, α2AR; conditions: data not shown
[12] = system: pERK in HEK293 cells transfected with human α2ARs; experiment: ERK phosphorylation in α2AR-transfected HEK293 cells; assay type: cell-based; conditions: 1 μM, 5 min
Protocol: as §3

[13] = HEK293, read-out: Emax as percent of clonidine's maximum response, α11
[14] = HEK293, read-out: Emax as percent of clonidine's maximum response, αq

T3 sequence (P25100 whole entry): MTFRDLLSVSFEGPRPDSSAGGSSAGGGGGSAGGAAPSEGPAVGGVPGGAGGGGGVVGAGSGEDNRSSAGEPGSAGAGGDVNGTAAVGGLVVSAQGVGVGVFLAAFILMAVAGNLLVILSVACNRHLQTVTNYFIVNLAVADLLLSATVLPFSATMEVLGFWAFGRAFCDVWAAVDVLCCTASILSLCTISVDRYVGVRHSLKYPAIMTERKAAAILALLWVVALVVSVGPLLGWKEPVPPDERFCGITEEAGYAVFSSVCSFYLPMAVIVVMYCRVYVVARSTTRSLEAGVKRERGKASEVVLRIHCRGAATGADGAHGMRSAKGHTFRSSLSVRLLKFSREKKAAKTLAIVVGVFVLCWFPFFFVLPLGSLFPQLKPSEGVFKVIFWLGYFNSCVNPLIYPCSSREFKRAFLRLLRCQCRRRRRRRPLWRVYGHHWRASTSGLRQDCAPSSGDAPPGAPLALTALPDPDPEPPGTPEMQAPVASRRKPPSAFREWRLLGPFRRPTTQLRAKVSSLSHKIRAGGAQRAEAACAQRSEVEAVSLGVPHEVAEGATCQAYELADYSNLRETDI
T2 sequence (P18089 whole entry): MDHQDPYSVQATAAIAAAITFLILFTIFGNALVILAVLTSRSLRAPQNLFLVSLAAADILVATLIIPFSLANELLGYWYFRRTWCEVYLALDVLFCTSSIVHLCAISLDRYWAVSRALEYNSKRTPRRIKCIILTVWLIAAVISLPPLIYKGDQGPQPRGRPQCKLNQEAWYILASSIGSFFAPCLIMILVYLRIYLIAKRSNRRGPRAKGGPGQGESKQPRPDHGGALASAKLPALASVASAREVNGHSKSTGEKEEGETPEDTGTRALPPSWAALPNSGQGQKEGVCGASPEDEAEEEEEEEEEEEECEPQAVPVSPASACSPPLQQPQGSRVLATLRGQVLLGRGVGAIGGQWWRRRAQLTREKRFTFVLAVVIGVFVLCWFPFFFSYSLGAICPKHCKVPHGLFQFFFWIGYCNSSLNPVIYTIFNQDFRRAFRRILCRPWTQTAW
T9 sequence (P31645 whole entry): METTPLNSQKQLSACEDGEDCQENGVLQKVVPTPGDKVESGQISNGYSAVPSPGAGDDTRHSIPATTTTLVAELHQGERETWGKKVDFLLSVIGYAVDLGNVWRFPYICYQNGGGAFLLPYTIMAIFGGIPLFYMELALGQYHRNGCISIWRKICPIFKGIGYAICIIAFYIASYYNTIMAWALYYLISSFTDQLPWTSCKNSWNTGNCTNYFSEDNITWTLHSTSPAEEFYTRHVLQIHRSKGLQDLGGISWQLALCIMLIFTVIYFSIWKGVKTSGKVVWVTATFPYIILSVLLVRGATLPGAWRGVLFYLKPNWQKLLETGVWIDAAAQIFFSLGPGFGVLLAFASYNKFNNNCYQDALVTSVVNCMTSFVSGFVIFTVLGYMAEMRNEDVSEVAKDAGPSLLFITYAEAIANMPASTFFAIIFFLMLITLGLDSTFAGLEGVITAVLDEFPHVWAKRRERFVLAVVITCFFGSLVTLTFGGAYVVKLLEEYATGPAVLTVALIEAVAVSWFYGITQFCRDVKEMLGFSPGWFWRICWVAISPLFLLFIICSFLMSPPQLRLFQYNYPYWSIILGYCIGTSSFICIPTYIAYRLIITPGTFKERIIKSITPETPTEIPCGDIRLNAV
T6 sequence (P41145 whole entry): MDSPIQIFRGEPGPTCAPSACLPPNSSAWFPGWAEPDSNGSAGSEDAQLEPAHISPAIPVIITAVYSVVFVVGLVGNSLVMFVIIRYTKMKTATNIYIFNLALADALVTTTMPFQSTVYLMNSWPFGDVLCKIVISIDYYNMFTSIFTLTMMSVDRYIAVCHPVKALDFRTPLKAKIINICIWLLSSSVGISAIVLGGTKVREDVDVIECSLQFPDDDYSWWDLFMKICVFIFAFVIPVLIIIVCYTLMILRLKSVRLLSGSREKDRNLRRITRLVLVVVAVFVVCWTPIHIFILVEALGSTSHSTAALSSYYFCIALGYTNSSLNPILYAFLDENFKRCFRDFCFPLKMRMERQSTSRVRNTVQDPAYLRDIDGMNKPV
T4 sequence (P35372 whole entry): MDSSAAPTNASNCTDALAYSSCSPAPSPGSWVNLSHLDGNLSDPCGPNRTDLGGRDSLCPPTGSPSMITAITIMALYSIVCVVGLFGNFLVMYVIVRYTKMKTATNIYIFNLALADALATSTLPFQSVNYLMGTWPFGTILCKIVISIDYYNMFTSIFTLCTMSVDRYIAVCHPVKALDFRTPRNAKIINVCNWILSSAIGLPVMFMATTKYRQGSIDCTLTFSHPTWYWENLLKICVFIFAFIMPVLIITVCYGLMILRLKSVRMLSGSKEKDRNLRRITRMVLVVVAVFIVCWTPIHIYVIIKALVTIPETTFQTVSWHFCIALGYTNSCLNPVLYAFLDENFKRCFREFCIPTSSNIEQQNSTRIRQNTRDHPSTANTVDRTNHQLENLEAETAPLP
T1 sequence (P41143 whole entry): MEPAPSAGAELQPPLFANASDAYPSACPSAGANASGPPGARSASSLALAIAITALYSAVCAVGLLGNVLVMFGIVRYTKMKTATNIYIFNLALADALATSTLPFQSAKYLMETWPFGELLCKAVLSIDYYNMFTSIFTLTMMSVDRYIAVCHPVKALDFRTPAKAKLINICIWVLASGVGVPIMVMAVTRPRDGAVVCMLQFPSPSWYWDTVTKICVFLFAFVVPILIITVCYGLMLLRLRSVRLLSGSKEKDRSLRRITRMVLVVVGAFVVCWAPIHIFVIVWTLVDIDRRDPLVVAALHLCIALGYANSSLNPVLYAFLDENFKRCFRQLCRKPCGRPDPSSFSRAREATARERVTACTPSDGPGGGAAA
T5 sequence (P35368 whole entry): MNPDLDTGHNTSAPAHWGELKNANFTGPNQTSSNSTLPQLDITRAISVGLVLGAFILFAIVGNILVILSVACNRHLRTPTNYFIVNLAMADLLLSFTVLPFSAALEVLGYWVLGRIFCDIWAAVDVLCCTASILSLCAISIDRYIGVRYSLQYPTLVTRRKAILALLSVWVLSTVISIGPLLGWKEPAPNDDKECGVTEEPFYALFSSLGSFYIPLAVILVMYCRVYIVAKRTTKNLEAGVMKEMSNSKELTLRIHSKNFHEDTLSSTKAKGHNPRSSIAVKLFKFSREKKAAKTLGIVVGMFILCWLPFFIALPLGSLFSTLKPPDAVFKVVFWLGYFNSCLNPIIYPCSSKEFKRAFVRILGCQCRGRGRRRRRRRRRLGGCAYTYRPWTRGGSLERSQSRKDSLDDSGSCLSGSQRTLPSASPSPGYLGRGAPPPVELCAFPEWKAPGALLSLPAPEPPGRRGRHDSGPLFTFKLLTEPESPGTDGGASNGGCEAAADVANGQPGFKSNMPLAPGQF
T10 sequence (P35354 18-604): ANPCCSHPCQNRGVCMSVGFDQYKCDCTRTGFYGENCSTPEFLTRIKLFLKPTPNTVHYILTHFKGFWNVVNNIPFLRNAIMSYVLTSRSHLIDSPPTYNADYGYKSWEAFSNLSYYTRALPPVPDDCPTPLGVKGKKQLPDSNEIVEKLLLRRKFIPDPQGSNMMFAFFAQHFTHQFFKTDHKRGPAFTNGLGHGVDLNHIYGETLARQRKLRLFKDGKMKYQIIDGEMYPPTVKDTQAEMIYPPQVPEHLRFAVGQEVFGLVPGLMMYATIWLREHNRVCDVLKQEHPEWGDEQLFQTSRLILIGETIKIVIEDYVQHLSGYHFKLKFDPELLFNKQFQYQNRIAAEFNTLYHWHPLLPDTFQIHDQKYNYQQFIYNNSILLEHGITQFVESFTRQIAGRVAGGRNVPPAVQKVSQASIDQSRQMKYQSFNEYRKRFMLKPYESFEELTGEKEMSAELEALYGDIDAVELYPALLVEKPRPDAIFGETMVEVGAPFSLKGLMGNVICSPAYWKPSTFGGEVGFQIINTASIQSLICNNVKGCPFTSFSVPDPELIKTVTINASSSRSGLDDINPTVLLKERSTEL

## CC[C@@H]1CN2CC[C@@]3(O)C(=Nc4cccc(OC)c43)[C@@H]2C[C@@H]1/C(=C\OC)C(=O)OC [7-Hydroxymitragynine]
δ-opioid receptors
  Inhibition of radioligand binding, δ-opioid receptors: more than 50%
α2BR
  Inhibition of specific radioligand binding, α2B: less than 15%
α1DR
  Inhibition of specific radioligand binding, α1D: less than 15%
μ-opioid receptors
  Inhibition of radioligand binding, μ-opioid receptors: more than 50%
α1BR
  Inhibition of specific radioligand binding, α1B: less than 15%
κ-opioid receptors
  Inhibition of radioligand binding, κ-opioid receptors: more than 50%
α1AR [1]
  Inhibition of specific radioligand binding, α1A: less than 15%
α2AR [2]
  Inhibition of specific radioligand binding, α2A: less than 15%
Any enzyme tested
  Inhibition of the activity of enzymes tested: did not inhibit the activity of any enzyme tested

## CC[C@@H]1CN2CCc3c([nH]c4cccc(O)c34)[C@@H]2C[C@@H]1/C(=C\OC)C(=O)OC [9-Hydroxycorynantheidine]
α2BR
  Inhibition of specific radioligand binding, α2B: less than 25%
Serotonin transporter
  Inhibition of radioligand binding, serotonin transporter: ~58%
α1DR
  Inhibition of specific radioligand binding, α1D: more than 60%
[3]
  Inhibition of radioligand binding, voltage-gated sodium channels: ~57%
COX2
  Inhibition of COX2: > 70%
α1AR [1]
  Inhibition of specific radioligand binding, α1A: more than 60%
α2AR [2]
  Inhibition of specific radioligand binding, α2A: less than 25%

## COc1cc2nc(N3CCN(C(=O)c4ccco4)CC3)nc(N)c2cc1OC [Prazosin, prazosin]
β1 and β2 adrenoceptors
  Kd: ≥ 8 µM
Human α2Rs; read-out: Affinity (Kd) at each of the human α2Rs
  Kd: ≥ 0.3 µM
Human α1Rs
  Affinity (Kd) at each of the α1Rs: single-digit nM or higher affinity

## Brc1c(NC2=NCCN2)ccc2nccnc12 [UK 14, 304 (brimonidine), brimonidine, reference compound]
α2AR [4]
  β-arrestin2 recruitment, agonist mode: robust α2AR-β-arrestin2 recruitment
[5]
  pERK, nontransfected HEK293: did not increase pERK

## CCC1(c2cnc[nH]2)Cc2ccccc2C1 [atipamezole]
β1 and β2 adrenoceptors
  Kd: > 30 µM
Human α2Rs
  Affinity (Kd) at each of the human α2Rs: double-digit nM
α2AR [6]
  Kb: 0.00692 µM
α2AR [4]
  β-arrestin2 recruitment, agonist mode: did not recruit β-arrestin2
Human α1Rs; read-out: Affinity (Kd) at each of the α1Rs
  Kd: ≥ 1 µM

## Clc1cccc(Cl)c1N=C1NCCN1 [clonidine]
α1AR [7]; [13]
  Emax: 100%
α1AR [7]; [14]
  Emax: 100%
Rat α2AR [8]
  Effect on forskolin-stimulated cAMP, rat α2AR: agonist
α2AR [9]
  Effect on forskolin-stimulated cAMP, human α2AR: decreased forskolin-stimulated cAMP production
[5]; 1 μM, 5 min, vs CRISPR scrambled
  pERK-stimulating effect in Gαq/11 knockout HEK293 cells: abolished
[5]
  pERK-stimulating effect with 100 nM atipamezole cotreatment: did not affect
  pERK-stimulating effect with 100 nM prazosin cotreatment: abolished
α1A and α1BR
  EC50: < 0.1 µM
Rat α2AR [10]
  Effect on forskolin-induced cAMP, rat α2AR in HEK293: attenuated forskolin-induced cAMP production
α2AR [11]
  Activation of Gαq or Gα11 via α2ARs: no effect

## CNC[C@H](O)c1ccc(O)c(O)c1 [epinephrine]
α1AR [7]; [13]
  Emax: 279%

## CC(C)NCC(O)c1ccc(O)c(O)c1 (stereo not shown) [isoproterenol]
[12]
  pERK relative to buffer, α2AR-transfected HEK293: significantly increased pERK
[5]; 1 μM, 5 min
  pERK relative to buffer, nontransfected HEK293: stimulated pERK
[5]
  pERK-stimulating effect with 100 nM atipamezole cotreatment: not affected
  pERK-stimulating effect with 100 nM prazosin cotreatment: not affected

## CC(Oc1c(Cl)cccc1Cl)C1=NCCN1 (stereo not shown) [lofexidine]
α1AR [7]; EC50, α11, α1AR-Gα11
  EC50: 0.112 µM
α1AR [7]; EC50, αq, α1AR-Gαq
  EC50: 0.0955 µM
α1AR [7]; [13]
  Emax: 76%
α1AR [7]; [14]
  Emax: 84%

## CNC[C@H](O)c1cccc(O)c1 [phenylephrine]
[5]
  pERK, nontransfected HEK293: robust increases in pERK

Source: article PMC12679550 (ACS Chemical Neuroscience, 2025)
